US20100151104A1, “Preservative System For Beverages Based On Combinations Of Trans-Cinnamic Acid, Lauric Arginate, And Dimethyl Dicarbonate” (priority 2008, published 2010)

Tests used:
Format in all cases: cell-based
Zygosaccharomyces bailii = assay: Growth in 10% apple juice beverage with combinations of LAE & cinnamic acid; log (QA/Qa+QB/Qb) calculation
Source text: (§1) Trans-cinnamic acid and lauric arginate were combined in the following beverage formulation: [table] […] The analysis of the interaction between lauric arginate and cinnamic acid can be refined through use of a mathematical method developed by Voorspuij and Nass (Arch. Int. pharmacodyn. 59:211 1957) (generally accepted among those practiced in the art.) Herein, the interactions between two active substances can be explored. First the quantity (Qa=Molar Cone) of compound A required for an end point (concentration required to stabilize product for 16 weeks) is established. Similarly, the quantity (Qb =Molar cone) of substance B required to establish the same endpoint is established. Thereafter, mixtures of A & B, in quantities QA & Qs are established that also define endpoints. […] If the sum of the ratios for a mixture of A & Bare=1, then the interaction is considered additive. […] Calculation of log (QA/Qa+QB/Qb) for LAE+trans Cinnamic Acid vs Zygosaccharomyces bailii

[1] = test system: seven bio-indicator strains (Zygosaccharomyce baili, Brettanomyces species, Saccharomyces cerevisiae, Paecilomyces lilacinus, Zygosaccharomyces bisporus …); assay: Example 2: growth/no growth of seven bio-indicator strains in 4% apple juice beverage, 16 weeks; conditions: FIGS. 1a, 1b; stand alone; pH 3.4; 16 weeks at 25° C.
Source text: A single preparation of base beverage was employed to prepare each of five tests and consisted of 4% apple juice, 68 g sucrose/L, 52 g glucose/L, 2 g fructose/L prepared in batch water that was formulated to 90 ppm hardness with calcium chloride and magnesium chloride. […] The total combined quantity of sodium malate and malic acid was near constant, but the ratio of malic acid and malate varied slightly given the presence or absence of lauric arginate or cinnamic acid. Where required, lauric arginate or cinnamic acid was supplemented from separately prepared stock solutions. Each of the five tests employed the same bio-indicator organisms; Growth (+) versus no growth (-) established by visual inspection or spectrophotometrically. […] Y3, Zygosaccharomyce baili, Pepsi isolate 906; C-7UP, Brettanomyces species, Pepsi Isolate; Spore, an ascospore preparation of Saccharomyces cerevisiae 99 a Pepsi Isolate; […], Zygosaccharomyces baili, ATCC 60484; Spores, M7, Paecilomyces lilacinus ATCC 90461; […], Zygosaccharomyces bisporus ATCC 52407; Spores, M4, Talaromvces flavus var. flavus ATCC 10512. Samples were incubated for period of 16 weeks at 25° C. in vessels protective against evaporation.

Brettanomyces nardensis = assay: Growth in 10% apple juice beverage with combinations of LAE & cinnamic acid; log (QA/Qa+QB/Qb) calculation
Source text: as §1, with “Brettanomyces […]” for “Zygosaccharomyces bailii”

Saccharomyces cerevsiae = assay: as above
Source text: as §1, with “[table] • Values reflect amount of growth (normalized) to control (0 ppm LAE & 0 ppm Cinnamic acid) for each pH tested.” for “[table]”, “Saccharomyces […]” for “Zygosaccharomyces bailii”

[2] = pH 3.0, LAE 0 ppm, Cinnamic Acid 10 ppm
[3] = pH 3.0, LAE 0 ppm, Cinnamic Acid 20 ppm
[4] = pH 3.0, LAE 0 ppm, Cinnamic Acid 50 ppm
[5] = pH 3.0, LAE 0 ppm, Cinnamic Acid 75 ppm
[6] = pH 3.0, LAE 0 ppm, Cinnamic Acid 100 ppm
[7] = pH 3.5, LAE 0 ppm, Cinnamic Acid 10 ppm
[8] = pH 3.5, LAE 0 ppm, Cinnamic Acid 20 ppm
[9] = pH 3.5, LAE 0 ppm, Cinnamic Acid 50 ppm
[10] = pH 3.5, LAE 0 ppm, Cinnamic Acid 75 ppm
[11] = pH 3.5, LAE 0 ppm, Cinnamic Acid 100 ppm
[12] = pH 4.0, LAE 0 ppm, Cinnamic Acid 10 ppm
[13] = pH 4.0, LAE 0 ppm, Cinnamic Acid 20 ppm
[14] = pH 4.0, LAE 0 ppm, Cinnamic Acid 50 ppm
[15] = pH 4.0, LAE 0 ppm, Cinnamic Acid 75 ppm
[16] = pH 4.0, LAE 0 ppm, Cinnamic Acid 100 ppm
[17] = stand alone, end point = concentration required to stabilize product for 16 weeks
[18] = pH 3.0, LAE 2.5 ppm, Cinnamic Acid 0 ppm
[19] = pH 3.0, LAE 5 ppm, Cinnamic Acid 0 ppm
[20] = pH 3.0, LAE 7.5 ppm, Cinnamic Acid 0 ppm
[21] = pH 3.0, LAE 10 ppm, Cinnamic Acid 0 ppm
[22] = pH 3.0, LAE 15 ppm, Cinnamic Acid 0 ppm
[23] = pH 3.5, LAE 2.5 ppm, Cinnamic Acid 0 ppm
[24] = pH 3.5, LAE 5 ppm, Cinnamic Acid 0 ppm
[25] = pH 3.5, LAE 7.5 ppm, Cinnamic Acid 0 ppm
[26] = pH 3.5, LAE 10 ppm, Cinnamic Acid 0 ppm
[27] = pH 3.5, LAE 15 ppm, Cinnamic Acid 0 ppm
[28] = pH 4.0, LAE 2.5 ppm, Cinnamic Acid 0 ppm
[29] = pH 4.0, LAE 5 ppm, Cinnamic Acid 0 ppm
[30] = pH 4.0, LAE 7.5 ppm, Cinnamic Acid 0 ppm
[31] = pH 4.0, LAE 10 ppm, Cinnamic Acid 0 ppm
[32] = pH 4.0, LAE 15 ppm, Cinnamic Acid 0 ppm

O=C(O)/C=C/c1ccccc1 [Cinnamic Acid, trans-cinnamic acid]
QA/Qa + QB/Qb (Zygosaccharomyces bailii; QLAE 0, QCA 300): 1.00
QLAE/QLAE* (Zygosaccharomyces bailii; QLAE 0, QCA 300): 0.00
QNaB/QNAB* (Zygosaccharomyces bailii; QLAE 0, QCA 300): 1.00
log (QA/Qa + QB/Qb) (Zygosaccharomyces bailii; QLAE 0, QCA 300): 0.0000
amount of growth (normalized) to control (Zygosaccharomyces bailii; [2]): 89%
amount of growth (normalized) to control (Zygosaccharomyces bailii; [3]): 82%
amount of growth (normalized) to control (Zygosaccharomyces bailii; [4]): 85%
amount of growth (normalized) to control (Zygosaccharomyces bailii; [5]): 45%
amount of growth (normalized) to control (Zygosaccharomyces bailii; [6]): 36%
amount of growth (normalized) to control (Zygosaccharomyces bailii; [7]): 97%
amount of growth (normalized) to control (Zygosaccharomyces bailii; [8]): 92%
amount of growth (normalized) to control (Zygosaccharomyces bailii; [9]): 76%
amount of growth (normalized) to control (Zygosaccharomyces bailii; [10]): 57%
amount of growth (normalized) to control (Zygosaccharomyces bailii; [11]): 48%
amount of growth (normalized) to control (Zygosaccharomyces bailii; [12]): 103%
amount of growth (normalized) to control (Zygosaccharomyces bailii; [13]): 94%
amount of growth (normalized) to control (Zygosaccharomyces bailii; [14]): 78%
amount of growth (normalized) to control (Zygosaccharomyces bailii; [15]): 74%
amount of growth (normalized) to control (Zygosaccharomyces bailii; [16]): 56%
QCA* (quantity of cinnamic acid alone required for the end point) (Zygosaccharomyces bailii; [17]): QCA* 300
concentration required to inhibit all seven bio-indicator strains [1]: 1.61 mM
QA/Qa + QB/Qb (Brettanomyces nardensis; QLAE 0, QCA 50): 1.00
QLAE/QLAE* (Brettanomyces nardensis; QLAE 0, QCA 50): 0.00
QNaB/QNAB* (Brettanomyces nardensis; QLAE 0, QCA 50): 1.00
log (QA/Qa + QB/Qb) (Brettanomyces nardensis; QLAE 0, QCA 50): 0.0000
amount of growth (normalized) to control (Brettanomyces nardensis; [2]): 89%
amount of growth (normalized) to control (Brettanomyces nardensis; [3]): 67%
amount of growth (normalized) to control (Brettanomyces nardensis; [4]): 1%
amount of growth (normalized) to control (Brettanomyces nardensis; [5]): 0%
amount of growth (normalized) to control (Brettanomyces nardensis; [6]): 0%
amount of growth (normalized) to control (Brettanomyces nardensis; [7]): 88%
amount of growth (normalized) to control (Brettanomyces nardensis; [8]): 79%
amount of growth (normalized) to control (Brettanomyces nardensis; [9]): 2%
amount of growth (normalized) to control (Brettanomyces nardensis; [10]): 1%
amount of growth (normalized) to control (Brettanomyces nardensis; [11]): 1%
amount of growth (normalized) to control (Brettanomyces nardensis; [12]): 118%
amount of growth (normalized) to control (Brettanomyces nardensis; [13]): 101%
amount of growth (normalized) to control (Brettanomyces nardensis; [14]): 5%
amount of growth (normalized) to control (Brettanomyces nardensis; [15]): 2%
amount of growth (normalized) to control (Brettanomyces nardensis; [16]): 1%
QCA* (quantity of cinnamic acid alone required for the end point) (Brettanomyces nardensis; [17]): QCA* 50
QA/Qa + QB/Qb (Saccharomyces cerevsiae; QLAE 0, QCA 300): 1.00
QLAE/QLAE* (Saccharomyces cerevsiae; QLAE 0, QCA 300): 0.00
QNaB/QNAB* (Saccharomyces cerevsiae; QLAE 0, QCA 300): 1.00
log (QA/Qa + QB/Qb) (Saccharomyces cerevsiae; QLAE 0, QCA 300): 0.0000
amount of growth (normalized) to control (Saccharomyces cerevsiae; [2]): 80%
amount of growth (normalized) to control (Saccharomyces cerevsiae; [3]): 74%
amount of growth (normalized) to control (Saccharomyces cerevsiae; [4]): 50%
amount of growth (normalized) to control (Saccharomyces cerevsiae; [5]): 26%
amount of growth (normalized) to control (Saccharomyces cerevsiae; [6]): 11%
amount of growth (normalized) to control (Saccharomyces cerevsiae; [7]): 96%
amount of growth (normalized) to control (Saccharomyces cerevsiae; [8]): 85%
amount of growth (normalized) to control (Saccharomyces cerevsiae; [9]): 61%
amount of growth (normalized) to control (Saccharomyces cerevsiae; [10]): 44%
amount of growth (normalized) to control (Saccharomyces cerevsiae; [11]): 22%
amount of growth (normalized) to control (Saccharomyces cerevsiae; [12]): 96%
amount of growth (normalized) to control (Saccharomyces cerevsiae; [13]): 87%
amount of growth (normalized) to control (Saccharomyces cerevsiae; [14]): 72%
amount of growth (normalized) to control (Saccharomyces cerevsiae; [15]): 54%
amount of growth (normalized) to control (Saccharomyces cerevsiae; [16]): 39%
QCA* (quantity of cinnamic acid alone required for the end point) (Saccharomyces cerevsiae; [17]): QCA* 300

CCCCCCCCCCCC(=O)N[C@@H](CCCNC(=N)N)C(=O)OCC.Cl [LAE, ethyl-N-lauroyl-L-argniate hydrochloride]
QA/Qa + QB/Qb (Zygosaccharomyces bailii; QLAE 76, QCA 0): 1.00
QLAE/QLAE* (Zygosaccharomyces bailii; QLAE 76, QCA 0): 1.00
QNaB/QNAB* (Zygosaccharomyces bailii; QLAE 76, QCA 0): 0.00
log (QA/Qa + QB/Qb) (Zygosaccharomyces bailii; QLAE 76, QCA 0): 0.0000
amount of growth (normalized) to control (Zygosaccharomyces bailii; [18]): 81%
amount of growth (normalized) to control (Zygosaccharomyces bailii; [19]): 88%
amount of growth (normalized) to control (Zygosaccharomyces bailii; [20]): 82%
amount of growth (normalized) to control (Zygosaccharomyces bailii; [21]): 79%
amount of growth (normalized) to control (Zygosaccharomyces bailii; [22]): 75%
amount of growth (normalized) to control (Zygosaccharomyces bailii; [23]): 95%
amount of growth (normalized) to control (Zygosaccharomyces bailii; [24]): 75%
amount of growth (normalized) to control (Zygosaccharomyces bailii; [25]): 75%
amount of growth (normalized) to control (Zygosaccharomyces bailii; [26]): 78%
amount of growth (normalized) to control (Zygosaccharomyces bailii; [27]): 86%
amount of growth (normalized) to control (Zygosaccharomyces bailii; [28]): 94%
amount of growth (normalized) to control (Zygosaccharomyces bailii; [29]): 80%
amount of growth (normalized) to control (Zygosaccharomyces bailii; [30]): 85%
amount of growth (normalized) to control (Zygosaccharomyces bailii; [31]): 114%
amount of growth (normalized) to control (Zygosaccharomyces bailii; [32]): 124%
QLAE* (quantity of LAE alone required for the end point) (Zygosaccharomyces bailii; [17]): QLAE* 76
concentration required to inhibit all seven bio-indicator strains [1]: 0.16 mM
QA/Qa + QB/Qb (Brettanomyces nardensis; QLAE 15, QCA 0): 1.00
QLAE/QLAE* (Brettanomyces nardensis; QLAE 15, QCA 0): 1.00
QNaB/QNAB* (Brettanomyces nardensis; QLAE 15, QCA 0): 0.00
log (QA/Qa + QB/Qb) (Brettanomyces nardensis; QLAE 15, QCA 0): 0.0000
amount of growth (normalized) to control (Brettanomyces nardensis; [18]): 89%
amount of growth (normalized) to control (Brettanomyces nardensis; [19]): 116%
amount of growth (normalized) to control (Brettanomyces nardensis; [20]): 90%
amount of growth (normalized) to control (Brettanomyces nardensis; [21]): 99%
amount of growth (normalized) to control (Brettanomyces nardensis; [22]): 0%
amount of growth (normalized) to control (Brettanomyces nardensis; [23]): 112%
amount of growth (normalized) to control (Brettanomyces nardensis; [24]): 86%
amount of growth (normalized) to control (Brettanomyces nardensis; [25]): 81%
amount of growth (normalized) to control (Brettanomyces nardensis; [26]): 57%
amount of growth (normalized) to control (Brettanomyces nardensis; [27]): 0%
amount of growth (normalized) to control (Brettanomyces nardensis; [28]): 109%
amount of growth (normalized) to control (Brettanomyces nardensis; [29]): 104%
amount of growth (normalized) to control (Brettanomyces nardensis; [30]): 97%
amount of growth (normalized) to control (Brettanomyces nardensis; [31]): 0%
amount of growth (normalized) to control (Brettanomyces nardensis; [32]): 0%
QLAE* (quantity of LAE alone required for the end point) (Brettanomyces nardensis; [17]): QLAE* 15
QA/Qa + QB/Qb (Saccharomyces cerevsiae; QLAE 32, QCA 0): 1.00
QLAE/QLAE* (Saccharomyces cerevsiae; QLAE 32, QCA 0): 1.00
QNaB/QNAB* (Saccharomyces cerevsiae; QLAE 32, QCA 0): 0.00
log (QA/Qa + QB/Qb) (Saccharomyces cerevsiae; QLAE 32, QCA 0): 0.0000
amount of growth (normalized) to control (Saccharomyces cerevsiae; [18]): 97%
amount of growth (normalized) to control (Saccharomyces cerevsiae; [19]): 97%
amount of growth (normalized) to control (Saccharomyces cerevsiae; [20]): 86%
amount of growth (normalized) to control (Saccharomyces cerevsiae; [21]): 94%
amount of growth (normalized) to control (Saccharomyces cerevsiae; [22]): 42%
amount of growth (normalized) to control (Saccharomyces cerevsiae; [23]): 103%
amount of growth (normalized) to control (Saccharomyces cerevsiae; [24]): 104%
amount of growth (normalized) to control (Saccharomyces cerevsiae; [25]): 93%
amount of growth (normalized) to control (Saccharomyces cerevsiae; [26]): 105%
amount of growth (normalized) to control (Saccharomyces cerevsiae; [27]): 57%
amount of growth (normalized) to control (Saccharomyces cerevsiae; [28]): 101%
amount of growth (normalized) to control (Saccharomyces cerevsiae; [29]): 96%
amount of growth (normalized) to control (Saccharomyces cerevsiae; [30]): 91%
amount of growth (normalized) to control (Saccharomyces cerevsiae; [31]): 90%
amount of growth (normalized) to control (Saccharomyces cerevsiae; [32]): 79%
QLAE* (quantity of LAE alone required for the end point) (Saccharomyces cerevsiae; [17]): QLAE* 32
